For six compounds, MIC results are on record in patent publication US5629296A, “9A-N-(N'-carbamoyl)and 9A-N-(N'-thiocarbamoyl) derivatives of 9-deoxo-9A-aza-9A-homoerythromycin A” (Pliva farmaceutiska, kemijska, prehrambena i kozmeticka …, priority 1993, dated 1997).

≈ marks a conversion by molar mass, not a printed value. Where only a bound is given, the exact number is not on record here.

Assay in all cases: MIC, dilution method on microplates (NCCLS M7-A2)
Assay type in all cases: cell-based

Assay [1] has as its system Esherichia coli ATCC 10536. As for the experimental part:
(§1) Minimum inhibitory concentrations (MIC, mcg/ml) are determined by dilution method on microplates according to the recommendation of National Committee for Clinical Laboratory Standards (NCCLS, M7-A2). It is evident from Table 1 that standard strains and clinical isolates tested are susceptible to newly synthetised compounds. Thus they may be used for disinfection of rooms, chirurgical instruments and humans and as therapeutic agents in the treatment of infective diseases in animals, especially mammals and humans, caused by a broad spectrum of Gram-positive bacteria, mycoplasmas and generally patogenic microorganisms that are susceptible to the compounds of the formula (I). To this purpose the above compounds and pharmaceutically acceptable acid addition salts thereof may be administered orally in usual doses from 0.2 mg/kg body weight daily to about 250 mg/kg/day, most preferably from 5-50 mg/kg/day, or parenterally in the form of subcutaneous and intramuscular injections.

Assay [2] concerns Salmonella Panama 6117. The note with it: Salmonella enterica, PANAMA6117. On the procedure: as §1
Assay [3] has as its system Micrococcus flavus ATCC 10240. The note with it: ATCC10240. On the procedure: as §1
In assay [4] the test system is Staphylococcus aureus ATCC 6538P. The note with it: ATCC6538P. As for the experimental part:
as §1

The test system of assay [5] is Staphylococcus epidermidis ATCC 12228. The note with it: ATCC12228. On the procedure: as §1
Assay [6] has as its system Bacillus subtilis NCTC 8236. The note with it: NCTC8236. As for the experimental part: as §1
For assay [7], the system named is B. pumilus NCTC 8241. The note with it: Bacillus pumilus, NCTC8241. As for the experimental part:
as §1

The subject of assay [8] is Streptococcus faecalis ATCC 8043. The note with it: Enterococcus faecalis, ATCC8043. On the procedure: as §1
For assay [9], the system named is B. cererus ATCC 11778. On the procedure:
as §1

Assay [10] relates to Pseudomonas aeruginosa NCTC 10490. The note with it: NCTC10490. As for the experimental part:
as §1

In assay [11] the test system is BHS-A Streptococcus pyogenes J-21. On the procedure: as §1
Assay [12] deals with BHS-B Streptococcus Agalactiae J-22. On the procedure:
as §1

For the compound `CC[C@H]1OC(=O)[C@H](C)[C@@H](O[C@H]2C[C@@](C)(OC)[C@@H](O)[C@H](C)O2)[C@H](C)[C@@H](O[C@@H]2O[C@H](C)C[C@H](N(C)C)[C@H]2O)[C@](C)(O)C[C@@H](C)CN(C(=O)NC(C)C)[C@H](C)[C@@H](O)[C@]1(C)O` [Example 1, 9-deoxo-9a-N-(N'-isopropyl-carbamoyl)-9a-aza-9a-homoerythromycin A], the MIC (usually the lowest concentration that inhibits growth of the organism) was found to be 12.5 µg/mL (≈ 15.2 µM) in assay [1]; 6.25 µg/mL (≈ 7.62 µM) in [2]; 3.12 µg/mL (≈ 3.8 µM) in [3]; 1.56 µg/mL (≈ 1.9 µM) in [4]; 6.25 µg/mL (≈ 7.62 µM) in assay [5]; 1.56 µg/mL (≈ 1.9 µM) in [6]. Further, the MIC in [7] came out at 6.25 µg/mL (≈ 7.62 µM); in assay [8] it was 3.12 µg/mL (≈ 3.8 µM); in assay [9], 6.25 µg/mL (≈ 7.62 µM); in assay [10], 25 µg/mL (≈ 30.5 µM).
Turning to `CC[C@H]1OC(=O)[C@H](C)[C@@H](O[C@H]2C[C@@](C)(OC)[C@@H](O)[C@H](C)O2)[C@H](C)[C@@H](O[C@@H]2O[C@H](C)C[C@H](N(C)C)[C@H]2O)[C@](C)(O)C[C@@H](C)CN(C(=O)Nc2ccncc2)[C@H](C)[C@@H](O)[C@]1(C)O` [Example 4, 9-deoxo-9a-N-[N'-(4-pyridyl)-carbamoyl]-9a-aza-9a-homoerythromycin A], the MIC was 12.5 µg/mL (≈ 14.6 µM) in [1]; 25 µg/mL (≈ 29.2 µM) in [2]; 12.5 µg/mL (≈ 14.6 µM) in assay [11]; 12.5 µg/mL (≈ 14.6 µM) in assay [3]; 12.5 µg/mL (≈ 14.6 µM) in assay [12]; 12.5 µg/mL (≈ 14.6 µM) in [4]. Besides, the MIC in assay [5] was determined as 25 µg/mL (≈ 29.2 µM); in assay [6], 25 µg/mL (≈ 29.2 µM); in assay [7] it was 12.5 µg/mL (≈ 14.6 µM); in [8], 6.25 µg/mL (≈ 7.31 µM); in assay [9], 12.5 µg/mL (≈ 14.6 µM); in assay [10], 50 µg/mL (≈ 58.5 µM).
Take `CC[C@H]1OC(=O)[C@H](C)[C@@H](O[C@H]2C[C@@](C)(OC)[C@@H](O)[C@H](C)O2)[C@H](C)[C@@H](O[C@@H]2O[C@H](C)C[C@H](N(C)C)[C@H]2O)[C@](C)(O)C[C@@H](C)CN(C(=O)Nc2ccccc2)[C@H](C)[C@@H](O)[C@]1(C)O` [Example 5, 9-deoxo-9a-N-(N'-phenyl-carbamoyl)-9a-aza-9a-homoerythromycin A]: the MIC in assay [1] is 12.5 µg/mL (≈ 14.6 µM); in assay [2], 25 µg/mL (≈ 29.3 µM); in [11], 3.12 µg/mL (≈ 3.65 µM); in [3], 6.25 µg/mL (≈ 7.32 µM); in [12] it was 1.56 µg/mL (≈ 1.83 µM); in assay [4] it was 6.25 µg/mL (≈ 7.32 µM). Further, the MIC in assay [5] is 3.12 µg/mL (≈ 3.65 µM); in assay [6], 6.25 µg/mL (≈ 7.32 µM); in assay [7], 6.25 µg/mL (≈ 7.32 µM); in [8] it was 3.12 µg/mL (≈ 3.65 µM); in [9], 12.5 µg/mL (≈ 14.6 µM); in [10], 50 µg/mL (≈ 58.5 µM).
With `CC[C@H]1OC(=O)[C@H](C)[C@@H](O[C@H]2C[C@@](C)(OC)[C@@H](O)[C@H](C)O2)[C@H](C)[C@@H](O[C@@H]2O[C@H](C)C[C@H](N(C)C)[C@H]2O)[C@](C)(O)C[C@@H](C)CN(C(=O)NCc2ccccc2)[C@H](C)[C@@H](O)[C@]1(C)O` [Example 6, 9-deoxo-9a-N-(N'-benzyl-carbamoyl)-9a-aza-9a-homoerythromycin A], the MIC in assay [1] was 25 µg/mL (≈ 28.8 µM); in assay [2], above 100 µg/mL; in assay [3], 3.12 µg/mL (≈ 3.59 µM); in assay [4] it was 3.12 µg/mL (≈ 3.59 µM); in assay [5], 6.25 µg/mL (≈ 7.2 µM); in [6] it was 3.12 µg/mL (≈ 3.59 µM). Besides, the MIC in assay [7] was 3.12 µg/mL (≈ 3.59 µM); in assay [8] it was 3.12 µg/mL (≈ 3.59 µM); in [9] it was 6.25 µg/mL (≈ 7.2 µM); in assay [10], 50 µg/mL (≈ 57.6 µM).
`CC[C@H]1OC(=O)[C@H](C)[C@@H](O[C@H]2C[C@@](C)(OC)[C@@H](O)[C@H](C)O2)[C@H](C)[C@@H](O[C@@H]2O[C@H](C)C[C@H](N(C)C)[C@H]2O)[C@](C)(O)C[C@@H](C)CN(C(=S)NCc2ccccc2)[C@H](C)[C@@H](O)[C@]1(C)O` [Example 7, 9-deoxo-9a-N-(N'-benzyl-thiocarbamoyl)-9a-aza-9a-homoerythromycin A]: the MIC in assay [1] is 12.5 µg/mL (≈ 14.1 µM); in [2], above 100 µg/mL; in assay [3], 1.56 µg/mL (≈ 1.76 µM); in assay [4] it was 3.12 µg/mL (≈ 3.53 µM); in assay [5], 6.25 µg/mL (≈ 7.07 µM); in [6] it was 1.56 µg/mL (≈ 1.76 µM). Also, the minimal inhibitory concentration (MIC) was 1.56 µg/mL (≈ 1.76 µM) in assay [7], 1.56 µg/mL (≈ 1.76 µM) in assay [8], 6.25 µg/mL (≈ 7.07 µM) in [9] and 50 µg/mL (≈ 56.5 µM) in [10].
For the compound `CC[C@H]1OC(=O)[C@H](C)[C@@H](O[C@H]2C[C@@](C)(OC)[C@@H](O)[C@H](C)O2)[C@H](C)[C@@H](O[C@@H]2O[C@H](C)C[C@H](N(C)C)[C@H]2O)[C@](C)(O)C[C@@H](C)CN[C@H](C)[C@@H](O)[C@]1(C)O` [Example 9a-NH, 9-deoxo-9a-aza-9a-homoerythromycin A], the MIC came out at 3.12 µg/mL (≈ 4.25 µM) in [1]; 3.12 µg/mL (≈ 4.25 µM) in [2]; 3.12 µg/mL (≈ 4.25 µM) in assay [11]; 1.56 µg/mL (≈ 2.12 µM) in assay [3]; 1.56 µg/mL (≈ 2.12 µM) in assay [12]; 3.12 µg/mL (≈ 4.25 µM) in assay [4]. The MIC was 3.12 µg/mL (≈ 4.25 µM) in [5]; 12.5 µg/mL (≈ 17 µM) in assay [6]; 12.5 µg/mL (≈ 17 µM) in assay [7]; 3.12 µg/mL (≈ 4.25 µM) in [8]; 3.12 µg/mL (≈ 4.25 µM) in [9]; 25 µg/mL (≈ 34 µM) in assay [10].
